Measurements published in patent publication US10947242B2, “[1,2,4]triazolo[1,5and#8208;A]pyrimidine compounds as PDE2 inhibitors” (Janssen Pharmaceutica NV, priority 2016, dated 2021).
Read-outs that look alike come from different tables or passages of the source.

Legend:
Type in all cases: biochemical
[1] = biological target: T1, Human recombinant PDE10A (hPDE10A) (Homo sapiens, UniProt Q9Y233); assay: In vitro assay PDE10A, human clone (SPA, 3H-cAMP hydrolysis)
T1 construct: His tag (inferred from metal chelate purification); made in house; host or cells: Sf9 insect cells (baculovirus)
Outline: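 Hydrolysis of 3H-cAMP (60 nM cAMP, 0.008 μCi tracer) proceeded for 60 min at room temperature, with the product detected by SPA bead scintillation counting. The enzyme was hPDE10A from baculovirus-infected Sf9 cells in Tris pH 7.8 buffer with MgCl2 and EGTA, and compounds were at 1% DMSO final. Blanks lacked enzyme.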

[2] = biological target: T2, Human recombinant PDE3A (hPDE3A) (Homo sapiens, UniProt Q14432); assay: In vitro assay PDE3A (SPA, 3H-cAMP hydrolysis); conditions: for IC50: hPDE3B pIC50, read-out: pIC50 (converted); for Emax: read-out: hPDE3B Emax, read-out: Emax;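 as to all read-outs here: the method names PDE3A and the table heading PDE3B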
T2 construct: purchased Scottish Biomedical; host or cells: Sf9 insect cells
Outline: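 Radiometric SPA measuring [3H]-cAMP hydrolysis (0.4 μM cAMP, 2.4 μCi/ml) over 60 min at room temperature, in Tris pH 7.8 buffer with MgCl2 and EGTA, 1% DMSO. Enzyme: recombinant human brain PDE3A expressed in Sf9 cells, used as partially purified lysate. Counts compared with enzyme-free blanks and vehicle controls.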

[3] = biological target: T3, Human recombinant PDE2A (hPDE2A) (Homo sapiens, UniProt O00408); assay: In vitro assay PDE2A (SPA, 3H-cGMP hydrolysis); conditions: for Emax: read-out: hPDE2A Emax
T3 construct: His tag (inferred from metal chelate purification); made in house; host or cells: Sf9 insect cells (baculovirus)

[4] = human clone by default (no (r) mark), read-out: hPDE10A2 or rPDE10A2 Emax
[5] = human clone by default (no (r) mark), read-out: hPDE10A2 or rPDE10A2 pIC50 (converted)
[6] = read-out: hPDE2A pIC50 (converted)
[7] = human clone (h), default, read-out: hPDE10A2 Emax
[8] = human clone (h), default, read-out: hPDE10A2 pIC50 (converted)
[9] = human recombinant PDE2A, 10 μM cGMP substrate, read-out: hPDE2A pIC50 (converted)

T3 sequence (O00408 whole entry): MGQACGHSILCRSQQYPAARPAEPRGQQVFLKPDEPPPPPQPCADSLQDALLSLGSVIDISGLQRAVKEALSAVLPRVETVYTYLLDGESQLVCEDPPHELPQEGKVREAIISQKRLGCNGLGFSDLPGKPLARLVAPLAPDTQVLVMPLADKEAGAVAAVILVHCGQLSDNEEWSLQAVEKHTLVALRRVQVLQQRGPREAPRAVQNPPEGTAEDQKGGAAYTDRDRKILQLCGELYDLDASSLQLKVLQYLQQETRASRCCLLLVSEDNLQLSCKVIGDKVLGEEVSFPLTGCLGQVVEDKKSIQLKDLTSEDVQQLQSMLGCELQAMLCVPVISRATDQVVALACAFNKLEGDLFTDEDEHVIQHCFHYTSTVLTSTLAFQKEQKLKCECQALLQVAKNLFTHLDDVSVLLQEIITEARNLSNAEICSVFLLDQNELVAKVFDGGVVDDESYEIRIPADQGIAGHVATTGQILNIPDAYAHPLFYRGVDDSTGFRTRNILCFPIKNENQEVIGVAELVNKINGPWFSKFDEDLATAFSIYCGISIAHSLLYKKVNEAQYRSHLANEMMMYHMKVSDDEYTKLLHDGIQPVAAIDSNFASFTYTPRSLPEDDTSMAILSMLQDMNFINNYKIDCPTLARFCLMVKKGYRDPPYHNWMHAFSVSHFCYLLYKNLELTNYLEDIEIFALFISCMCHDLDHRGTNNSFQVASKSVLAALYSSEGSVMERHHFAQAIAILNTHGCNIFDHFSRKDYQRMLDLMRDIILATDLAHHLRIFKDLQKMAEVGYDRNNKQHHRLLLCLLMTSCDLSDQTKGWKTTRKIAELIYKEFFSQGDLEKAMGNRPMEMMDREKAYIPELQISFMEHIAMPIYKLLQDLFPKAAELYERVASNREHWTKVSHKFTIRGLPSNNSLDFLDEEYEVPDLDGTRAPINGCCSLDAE
T2 sequence (Q14432 whole entry): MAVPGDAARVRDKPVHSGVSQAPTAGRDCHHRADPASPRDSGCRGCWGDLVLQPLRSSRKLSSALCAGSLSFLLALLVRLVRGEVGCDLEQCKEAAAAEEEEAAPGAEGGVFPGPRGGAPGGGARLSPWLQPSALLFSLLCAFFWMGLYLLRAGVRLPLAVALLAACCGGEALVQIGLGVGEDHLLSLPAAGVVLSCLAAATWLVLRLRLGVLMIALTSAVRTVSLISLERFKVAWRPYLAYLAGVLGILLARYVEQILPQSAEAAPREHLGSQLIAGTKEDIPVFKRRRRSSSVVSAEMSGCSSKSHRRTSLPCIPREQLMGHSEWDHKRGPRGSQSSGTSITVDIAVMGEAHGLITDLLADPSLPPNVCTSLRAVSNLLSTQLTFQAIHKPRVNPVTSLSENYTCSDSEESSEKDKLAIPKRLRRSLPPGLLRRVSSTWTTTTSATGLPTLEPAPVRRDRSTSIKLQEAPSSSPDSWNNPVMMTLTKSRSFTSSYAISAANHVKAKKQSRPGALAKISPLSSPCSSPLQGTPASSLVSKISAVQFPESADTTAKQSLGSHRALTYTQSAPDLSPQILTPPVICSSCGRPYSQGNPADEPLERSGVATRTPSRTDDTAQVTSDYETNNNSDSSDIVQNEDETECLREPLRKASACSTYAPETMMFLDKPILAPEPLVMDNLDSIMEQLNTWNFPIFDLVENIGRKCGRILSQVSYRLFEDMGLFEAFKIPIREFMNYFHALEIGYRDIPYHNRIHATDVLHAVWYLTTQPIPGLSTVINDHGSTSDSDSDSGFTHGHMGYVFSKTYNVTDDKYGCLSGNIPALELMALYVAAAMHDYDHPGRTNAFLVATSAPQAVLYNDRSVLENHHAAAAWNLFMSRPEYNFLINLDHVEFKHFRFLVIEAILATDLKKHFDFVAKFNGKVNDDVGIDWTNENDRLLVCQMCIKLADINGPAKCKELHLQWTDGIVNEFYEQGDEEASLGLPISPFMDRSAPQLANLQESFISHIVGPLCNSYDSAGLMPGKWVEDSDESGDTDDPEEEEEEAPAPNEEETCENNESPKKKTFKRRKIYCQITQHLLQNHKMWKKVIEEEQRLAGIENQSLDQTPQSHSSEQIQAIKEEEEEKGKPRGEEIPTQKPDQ
T1 sequence (Q9Y233 267-1055): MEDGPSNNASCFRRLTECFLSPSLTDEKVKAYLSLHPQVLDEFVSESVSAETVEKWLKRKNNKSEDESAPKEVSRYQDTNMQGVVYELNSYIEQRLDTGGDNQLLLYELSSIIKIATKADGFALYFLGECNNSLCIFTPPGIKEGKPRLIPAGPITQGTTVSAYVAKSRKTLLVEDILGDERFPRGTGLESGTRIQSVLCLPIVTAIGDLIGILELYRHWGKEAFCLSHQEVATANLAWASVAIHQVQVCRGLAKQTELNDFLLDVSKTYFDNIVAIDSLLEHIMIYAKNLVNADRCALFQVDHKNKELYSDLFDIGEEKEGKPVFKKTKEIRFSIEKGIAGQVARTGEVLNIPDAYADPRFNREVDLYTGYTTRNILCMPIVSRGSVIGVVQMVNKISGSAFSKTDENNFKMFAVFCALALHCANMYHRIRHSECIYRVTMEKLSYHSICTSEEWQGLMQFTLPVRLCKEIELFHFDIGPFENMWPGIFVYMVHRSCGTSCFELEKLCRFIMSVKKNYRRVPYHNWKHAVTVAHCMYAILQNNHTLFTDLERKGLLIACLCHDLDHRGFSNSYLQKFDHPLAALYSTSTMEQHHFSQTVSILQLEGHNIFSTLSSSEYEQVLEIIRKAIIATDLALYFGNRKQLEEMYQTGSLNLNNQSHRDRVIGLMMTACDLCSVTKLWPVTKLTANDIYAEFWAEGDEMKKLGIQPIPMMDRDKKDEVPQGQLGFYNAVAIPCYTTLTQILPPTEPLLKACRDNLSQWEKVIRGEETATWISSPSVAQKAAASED

Row | SMILES | Emax [1, 4] | IC50 [1, 5] | IC50 [2] | Emax [2] | Emax [3] | IC50 [3, 6] | Emax [1, 7] | IC50 [1, 8] | IC50 [3, 9] | Emax ([3]; human recombinant PDE2A) | IC50 ([3]; hPDE2A pIC50)
1 | O=C(c1cccc2ccccc12)N1[C@H]2CC[C@H](c3cc(C(F)F)nc4ncnn34)[C@@H]1CC2 [Compound 320] | 62% | 7080 nM | > 10000 nM | 47% | 100% | 53.7 nM |  |  |  |  | 
2 | Cc1c(C(=O)N2CC[C@@H](C)[C@H](c3cc(C(F)F)nc4ncnn34)C2)ccc2c1OCO2 [Compound 145] |  |  | 2040 nM | 86% | 99% | 36.3 nM | 93% | 646 nM | 36.3 nM | 99% | 
3 | C[C@@H]1CCN(C(=O)c2cc(-c3ccco3)nn2C)C[C@H]1c1cc(C(F)F)nc2ncnn12 [Compound 98] |  |  | 603 nM | 94% | 100% | 0.603 nM | 98% | 39.8 nM | 0.603 nM | 100% | 
4 | O=C(c1ccc(OC(F)(F)F)c(F)c1)N1[C@H]2CC[C@H](c3cc(C(F)F)nc4ncnn34)[C@@H]1CC2 [Compound 342] | 77% | 2690 nM | 4470 nM | 69% | 100% | 32.4 nM |  |  |  |  | 
5 | C[C@@H]1CCN(C(=O)c2ccc(F)c(F)c2F)C[C@H]1c1cc(C(F)F)nc2ncnn12 [Compound 245] | 79% | 2190 nM | 5890 nM | 62% | 99% | 123 nM | 79% | 2190 nM |  |  | 
6 | O=C(c1ccc2c(c1)OC(F)(F)O2)N1[C@H]2CC[C@H](c3cc(C(F)F)nc4ncnn34)[C@@H]1CC2 [Compound 350] | 85% | 2090 nM | 4900 nM | 74% | 100% | 25.1 nM |  |  |  |  | 
7 | Cc1cc(C(=O)N2[C@H]3CC[C@@H]2[C@H](c2cc(C(F)F)nc4ncnn24)CC3)cc(C2CC2)n1 [Compound 274] | 63% | 6030 nM | > 10000 nM | 7% | 97% | 288 nM | 63% | 6030 nM |  |  | 
8 | C[C@@H]1CCN(C(=O)c2cc(C(C)(C)C)cc(C(C)(C)C)c2)C[C@H]1c1cc(C(F)F)nc2ncnn12 [Compound 259] | 92% | 1700 nM | 3550 nM | 82% | 99% |  | 92% | 1700 nM |  |  | 427 nM
9 | C[C@@H]1CCN(C(=O)c2cccc(C(F)(F)F)c2F)C[C@H]1c1cc(C(F)F)nc2ncnn12 [Compound 148] |  |  | 5620 nM | 67% | 101% | 38.9 nM | 89% | 912 nM | 38.9 nM | 101% | 
10 | C/C(=C\c1ccc(F)cc1)C(=O)N1[C@H]2CC[C@H](c3cc(C(F)F)nc4ncnn34)[C@@H]1CC2 [Compound 370] | 94% | 661 nM | 1450 nM | 87% | 100% | 33.9 nM |  |  |  |  | 
11 | C[C@@H]1CCN(C(=O)c2cnc3ccccc3c2O)C[C@H]1c1cc(C(F)F)nc2ncnn12 [Compound 146] |  |  | 1660 nM | 85% | 100% | 37.2 nM | 76% | 3310 nM |  |  | 
12 | Cc1cc(C(=O)N2CC[C@@H](C)[C@H](c3cc(C(F)F)nc4ncnn34)C2)cc(CO)n1 [Compound 361] | 92% | 355 nM | > 10000 nM | 37% | 100% | 2.75 nM |  |  |  |  | 
13 | Cc1cc([C@H]2CN(C(=O)c3ccc4nccn4c3)CC[C@@H]2C)n2ncnc2n1 [Compound 216] | 67% | 4470 nM | > 10000 nM | 26% | 98% | 437 nM | 67% | 4470 nM | 437 nM | 98% | 
14 | Cc1cc([C@@H]2CN(C(=O)c3nc4ccccc4o3)CC[C@H]2C)n2ncnc2n1 [Compound 21] |  |  | 1510 nM | 89% | 99% | 4.57 nM | 97% | 132 nM | 4.57 nM | 99% | 
15 | C[C@@H]1CCN(C(=O)c2ccncc2C(F)(F)F)C[C@H]1c1cc(C(F)F)nc2ncnn12 [Compound 239] | 43% | > 10000 nM | > 10000 nM | 16% | 96% | 191 nM | 43% | > 10000 nM | 191 nM | 96% | 
16 | Cc1cc([C@@H]2CN(C(=O)c3cnc4ccc(C(F)(F)F)cn34)CC[C@H]2C)n2ncnc2n1 [Compound 20] |  |  | 4270 nM | 74% | 101% | 12 nM | 98% | 132 nM | 12 nM | 101% | 
17 | Cc1nc(C(=O)N2CC[C@@H](C)[C@H](c3cc(C(F)F)nc4ncnn34)C2)c(C(F)(F)F)o1 [Compound 161] |  |  | > 10000 nM | 11% | 98% | 74.1 nM | 74% | 3090 nM | 74.1 nM | 98% | 
18 | C[C@@H]1CCN(C(=O)c2cc3n(n2)CCO3)C[C@H]1c1cc(C(F)F)nc2ncnn12 [Compound 166] |  |  | > 10000 nM | 32% | 98% | 93.3 nM | 81% | 2240 nM | 93.3 nM | 98% | 
19 | Cc1cc(C(=O)N2[C@H]3CC[C@@H]2[C@H](c2cc(C(F)F)nc4ncnn24)CC3)c(F)cn1 [Compound 62] |  |  | > 10000 nM | 8% | 77% | 3020 nM | 36% | > 10000 nM |  |  | 
20 | Cc1coc2ccc(C(=O)N3CC[C@@H](C)[C@H](c4cc(C(F)F)nc5ncnn45)C3)cc12 [Compound 92] |  |  | 1320 nM | 88% | 100% | 0.398 nM | 98% | 24.5 nM | 0.398 nM | 100% | 
21 | COc1ccc2nc(C(=O)N3CC[C@@H](C)[C@H](c4cc(C(F)F)nc5ncnn45)C3)sc2c1 [Compound 171] |  |  | 1150 nM | 93% | 99% | 11.7 nM | 97% | 355 nM | 11.7 nM | 99% | 
22 | COc1cccc2cc(C(=O)N3CC[C@@H](C)[C@H](c4cc(C(F)F)nc5ncnn45)C3)oc12 [Compound 105] |  |  | 1350 nM | 90% | 101% | 0.871 nM | 101% | 29.5 nM | 0.871 nM | 101% | 
23 | Cc1nc(C2CC2)cc(C(=O)N2CC[C@@H](C)[C@H](c3cc(C(F)F)nc4ncnn34)C2)c1F [Compound 279] | 96% | 316 nM | 2820 nM | 86% | 99% | 2.24 nM |  |  |  |  | 
24 | Cc1cnc(C(=O)N2CC[C@@H](C)[C@H](c3cc(C(F)F)nc4ncnn34)C2)cn1 [Compound 232] | 48% | > 10000 nM | > 10000 nM | 31% | 99% | 214 nM | 48% | > 10000 nM | 214 nM | 99% | 
25 | Cc1nc2cccc(C(=O)N3[C@H]4CC[C@H](c5cc(C(F)F)nc6ncnn56)[C@@H]3CC4)c2o1 [Compound 305] | 57% | 7080 nM | > 10000 nM | 7% | 100% | 87.1 nM |  |  |  |  | 
26 | C[C@@H]1CCN(C(=O)c2ncc(C#N)cc2Cl)C[C@H]1c1cc(C(F)F)nc2ncnn12 [Compound 238] | 48% |  | > 10000 nM | 35% | 94% | 380 nM | 48% |  | 380 nM | 94% | 
27 | Cc1ncoc1C(=O)N1CC[C@@H](C)[C@H](c2cc(C(F)F)nc3ncnn23)C1 [Compound 156] |  |  | > 10000 nM | 19% | 100% | 58.9 nM | 81% | 2000 nM | 58.9 nM | 100% | 
28 | C[C@@H]1CCN(C(=O)c2cncnc2)C[C@H]1c1cc(C(F)F)nc2ncnn12 [Compound 249] | 45% | > 10000 nM | > 10000 nM | 10% | 95% | 372 nM | 45% | > 10000 nM |  |  | 
29 | Cc1c(C(=O)N2CC[C@@H](C)[C@H](c3cc(C(F)F)nc4ncnn34)C2)ccnc1Cl [Compound 159] |  |  | > 10000 nM | 42% | 100% | 72.4 nM | 75% | 3240 nM | 72.4 nM | 100% | 
